From the NIST ThermoML archive (doi:10.1021/je300799f)
± gives the expanded uncertainty stated by the source.

Test: xn = mol fraction of the nth substance listed
Settings: 101 kPa, Liquid, Vibrating tube method

CCCC(=O)OC [methyl butanoate] + CCCCCCC
Settings	mass density [kg/m3]
288.15 K, x1 = 0.0478	695.54 ± 0.27
288.15 K, x1 = 0.094	702.79 ± 0.27
288.15 K, x1 = 0.1411	710.56 ± 0.27
288.15 K, x1 = 0.2025	720.91 ± 0.27
288.15 K, x1 = 0.2476	728.91 ± 0.27
288.15 K, x1 = 0.2996	738.37 ± 0.27
288.15 K, x1 = 0.3531	748.53 ± 0.27
288.15 K, x1 = 0.4112	759.9 ± 0.27
288.15 K, x1 = 0.4484	767.46 ± 0.27
288.15 K, x1 = 0.5023	778.63 ± 0.27
288.15 K, x1 = 0.5526	789.52 ± 0.27
288.15 K, x1 = 0.5984	799.7 ± 0.27
288.15 K, x1 = 0.6471	810.83 ± 0.28
288.15 K, x1 = 0.7077	825.2 ± 0.28
288.15 K, x1 = 0.7463	834.68 ± 0.28
288.15 K, x1 = 0.798	847.73 ± 0.28
288.15 K, x1 = 0.8912	872.29 ± 0.29
288.15 K, x1 = 0.9493	888.46 ± 0.29
288.15 K, x1 = 1	903.31 ± 0.23
298.15 K, x1 = 0.0485	686.88 ± 0.27
298.15 K, x1 = 0.0876	693 ± 0.27
298.15 K, x1 = 0.1389	701.34 ± 0.27
298.15 K, x1 = 0.2122	713.65 ± 0.27
298.15 K, x1 = 0.2586	721.76 ± 0.27
298.15 K, x1 = 0.302	729.67 ± 0.27
298.15 K, x1 = 0.3571	739.98 ± 0.27
298.15 K, x1 = 0.4019	748.57 ± 0.27
298.15 K, x1 = 0.4492	758.07 ± 0.27
298.15 K, x1 = 0.5017	768.87 ± 0.27
298.15 K, x1 = 0.5573	780.67 ± 0.27
298.15 K, x1 = 0.5952	789.01 ± 0.28
298.15 K, x1 = 0.6466	800.69 ± 0.28
298.15 K, x1 = 0.7063	814.61 ± 0.28
298.15 K, x1 = 0.7424	823.41 ± 0.28
298.15 K, x1 = 0.7993	837.66 ± 0.28
298.15 K, x1 = 0.8623	853.85 ± 0.28
298.15 K, x1 = 0.9015	864.37 ± 0.29
298.15 K, x1 = 0.9507	878.23 ± 0.29
298.15 K, x1 = 1	892.31 ± 0.23
308.15 K, x1 = 0.063	680.36 ± 0.27
308.15 K, x1 = 0.117	688.78 ± 0.27
308.15 K, x1 = 0.187	700.22 ± 0.27
308.15 K, x1 = 0.3025	720.34 ± 0.27
308.15 K, x1 = 0.417	741.86 ± 0.27
308.15 K, x1 = 0.5047	759.48 ± 0.27
308.15 K, x1 = 0.5651	772.28 ± 0.27
308.15 K, x1 = 0.5933	778.47 ± 0.28
308.15 K, x1 = 0.6532	791.9 ± 0.28
308.15 K, x1 = 0.7045	803.77 ± 0.28
308.15 K, x1 = 0.7487	814.31 ± 0.28
308.15 K, x1 = 0.7648	818.37 ± 0.28
308.15 K, x1 = 0.789	824.36 ± 0.28
308.15 K, x1 = 0.8514	840.37 ± 0.28
308.15 K, x1 = 0.8818	848.32 ± 0.29
308.15 K, x1 = 0.9257	860.13 ± 0.29
308.15 K, x1 = 0.9603	869.83 ± 0.29
308.15 K, x1 = 1	881.19 ± 0.24
318.15 K, x1 = 0.0768	673.72 ± 0.27
318.15 K, x1 = 0.089	675.62 ± 0.27
318.15 K, x1 = 0.1535	685.7 ± 0.27
318.15 K, x1 = 0.2117	695.29 ± 0.27
318.15 K, x1 = 0.2567	702.97 ± 0.27
318.15 K, x1 = 0.305	711.44 ± 0.27
318.15 K, x1 = 0.3544	720.36 ± 0.27
318.15 K, x1 = 0.4042	729.76 ± 0.27
318.15 K, x1 = 0.4351	735.72 ± 0.27
318.15 K, x1 = 0.5011	748.89 ± 0.27
318.15 K, x1 = 0.5487	758.83 ± 0.27
318.15 K, x1 = 0.5962	768.97 ± 0.28
318.15 K, x1 = 0.6971	791.66 ± 0.28
318.15 K, x1 = 0.7469	803.4 ± 0.28
318.15 K, x1 = 0.7973	815.75 ± 0.28
318.15 K, x1 = 0.8454	827.9 ± 0.28
318.15 K, x1 = 0.8948	840.81 ± 0.29
318.15 K, x1 = 0.9513	856.25 ± 0.29
318.15 K, x1 = 1	870.06 ± 0.24
328.15 K, x1 = 0.044	659.99 ± 0.27
328.15 K, x1 = 0.0921	667.12 ± 0.27
328.15 K, x1 = 0.1388	674.29 ± 0.27
328.15 K, x1 = 0.189	682.37 ± 0.27
328.15 K, x1 = 0.2611	694.33 ± 0.27
328.15 K, x1 = 0.3006	701.19 ± 0.27
328.15 K, x1 = 0.4098	721.06 ± 0.27
328.15 K, x1 = 0.4532	729.42 ± 0.27
328.15 K, x1 = 0.5031	739.32 ± 0.27
328.15 K, x1 = 0.5522	749.41 ± 0.27
328.15 K, x1 = 0.5979	759.1 ± 0.27
328.15 K, x1 = 0.6473	769.85 ± 0.28
328.15 K, x1 = 0.706	783.28 ± 0.28
328.15 K, x1 = 0.7456	792.62 ± 0.28
328.15 K, x1 = 0.7926	803.93 ± 0.28
328.15 K, x1 = 0.86	820.85 ± 0.28
328.15 K, x1 = 0.9028	832.08 ± 0.29
328.15 K, x1 = 0.9508	845.05 ± 0.29
328.15 K, x1 = 1	858.8 ± 0.24

CCCC(=O)OC [methyl butanoate] + CCCCCCCCC
Settings	mass density [kg/m3]
288.15 K, x1 = 0.0544	727.14 ± 0.25
288.15 K, x1 = 0.0804	729.99 ± 0.25
288.15 K, x1 = 0.1647	739.66 ± 0.25
288.15 K, x1 = 0.2172	746.06 ± 0.25
288.15 K, x1 = 0.2378	748.63 ± 0.26
288.15 K, x1 = 0.2963	756.43 ± 0.26
288.15 K, x1 = 0.3419	762.85 ± 0.26
288.15 K, x1 = 0.3986	771.19 ± 0.26
288.15 K, x1 = 0.4425	778.04 ± 0.26
288.15 K, x1 = 0.5007	787.63 ± 0.26
288.15 K, x1 = 0.5488	796.09 ± 0.26
288.15 K, x1 = 0.604	806.21 ± 0.26
288.15 K, x1 = 0.6553	816.39 ± 0.27
288.15 K, x1 = 0.6959	824.67 ± 0.27
288.15 K, x1 = 0.7507	836.81 ± 0.27
288.15 K, x1 = 0.8114	850.96 ± 0.28
288.15 K, x1 = 0.8553	862.13 ± 0.28
288.15 K, x1 = 0.8988	873.46 ± 0.29
288.15 K, x1 = 0.9507	888.13 ± 0.29
288.15 K, x1 = 1	903.31 ± 0.23
298.15 K, x1 = 0.0495	718.76 ± 0.25
298.15 K, x1 = 0.0998	724.04 ± 0.25
298.15 K, x1 = 0.1729	732.49 ± 0.25
298.15 K, x1 = 0.1935	734.88 ± 0.25
298.15 K, x1 = 0.2473	741.54 ± 0.25
298.15 K, x1 = 0.3035	748.92 ± 0.26
298.15 K, x1 = 0.3558	756.23 ± 0.26
298.15 K, x1 = 0.4462	769.69 ± 0.26
298.15 K, x1 = 0.5497	786.99 ± 0.26
298.15 K, x1 = 0.6465	805.02 ± 0.27
298.15 K, x1 = 0.7509	826.86 ± 0.27
298.15 K, x1 = 0.7772	832.78 ± 0.28
298.15 K, x1 = 0.8038	839.14 ± 0.28
298.15 K, x1 = 0.9052	864.6 ± 0.28
298.15 K, x1 = 0.953	878.19 ± 0.29
298.15 K, x1 = 1	892.31 ± 0.23
308.15 K, x1 = 0.0554	711.45 ± 0.25
308.15 K, x1 = 0.1002	716.1 ± 0.25
308.15 K, x1 = 0.1653	723.29 ± 0.25
308.15 K, x1 = 0.2108	728.63 ± 0.25
308.15 K, x1 = 0.2545	734.04 ± 0.26
308.15 K, x1 = 0.3082	740.93 ± 0.26
308.15 K, x1 = 0.3598	748.08 ± 0.26
308.15 K, x1 = 0.409	755.11 ± 0.26
308.15 K, x1 = 0.4594	762.76 ± 0.26
308.15 K, x1 = 0.4993	769.14 ± 0.26
308.15 K, x1 = 0.5504	777.76 ± 0.26
308.15 K, x1 = 0.6001	786.6 ± 0.26
308.15 K, x1 = 0.6482	795.68 ± 0.27
308.15 K, x1 = 0.6945	804.91 ± 0.27
308.15 K, x1 = 0.7463	815.78 ± 0.27
308.15 K, x1 = 0.7964	827.07 ± 0.28
308.15 K, x1 = 0.8451	838.68 ± 0.28
308.15 K, x1 = 0.8948	851.33 ± 0.28
308.15 K, x1 = 0.9497	866.34 ± 0.29
308.15 K, x1 = 1	881.19 ± 0.24
318.15 K, x1 = 0.0234	700.32 ± 0.25
318.15 K, x1 = 0.0731	705.17 ± 0.25
318.15 K, x1 = 0.1033	708.28 ± 0.25
318.15 K, x1 = 0.1552	713.83 ± 0.25
318.15 K, x1 = 0.1993	718.91 ± 0.26
318.15 K, x1 = 0.2571	725.77 ± 0.26
318.15 K, x1 = 0.3123	732.79 ± 0.26
318.15 K, x1 = 0.3568	738.79 ± 0.26
318.15 K, x1 = 0.4135	746.74 ± 0.26
318.15 K, x1 = 0.4555	753.07 ± 0.26
318.15 K, x1 = 0.5093	761.51 ± 0.26
318.15 K, x1 = 0.5565	769.3 ± 0.26
318.15 K, x1 = 0.6043	777.7 ± 0.26
318.15 K, x1 = 0.6544	787.04 ± 0.27
318.15 K, x1 = 0.7067	797.4 ± 0.27
318.15 K, x1 = 0.7541	807.31 ± 0.27
318.15 K, x1 = 0.8037	818.4 ± 0.28
318.15 K, x1 = 0.8594	831.69 ± 0.28
318.15 K, x1 = 0.9068	843.76 ± 0.28
318.15 K, x1 = 0.9511	855.91 ± 0.29
318.15 K, x1 = 1	870.06 ± 0.24
328.15 K, x1 = 0.0272	692.57 ± 0.25
328.15 K, x1 = 0.0562	695.34 ± 0.25
328.15 K, x1 = 0.078	697.49 ± 0.25
328.15 K, x1 = 0.1041	700.12 ± 0.26
328.15 K, x1 = 0.1502	704.97 ± 0.26
328.15 K, x1 = 0.2023	710.73 ± 0.26
328.15 K, x1 = 0.2654	718.16 ± 0.26
328.15 K, x1 = 0.3073	723.36 ± 0.26
328.15 K, x1 = 0.3624	730.61 ± 0.26
328.15 K, x1 = 0.412	737.45 ± 0.26
328.15 K, x1 = 0.4567	744 ± 0.26
328.15 K, x1 = 0.5083	751.95 ± 0.26
328.15 K, x1 = 0.5549	759.51 ± 0.26
328.15 K, x1 = 0.6157	770.1 ± 0.26
328.15 K, x1 = 0.6554	777.42 ± 0.27
328.15 K, x1 = 0.7027	786.49 ± 0.27
328.15 K, x1 = 0.749	795.99 ± 0.27
328.15 K, x1 = 0.8511	819.04 ± 0.28
328.15 K, x1 = 0.9051	832.64 ± 0.28
328.15 K, x1 = 0.9506	844.76 ± 0.29
328.15 K, x1 = 1	858.8 ± 0.24
